Drawing on ChEMBL document CHEMBL3507680, “University of Dundee, Gates Library screen for HepG2 cell viability”, this text covers cytotoxicity for 101 molecules.

The nature of this data set: Human HepG2 cell viability assay in 384 well format. Details: dose 125 nL, time 70.5 hour; concentration not given beside the values. In kind it is toxicity, cell-based. The note with it: HepG2 cells, read-out: Inhibition.
`FC(F)(F)c1ccc(-n2ccnc2-c2cc3n(n2)CCNC3)cn1`: the cytotoxicity at 70.5 h turned out to be 12.7%.
With `CCCN1C(=O)CC(N2CCN(c3ccc(F)cc3)CC2)C1=O` (stereo unspecified) the figure was 7.23%; with `Cc1nc(CN2CCN(C3CCOC3)Cc3cccnc32)cs1` (stereo unspecified), -0.337%; with `CCCNC(=O)CSc1nnc2[nH]c(=O)cc(CC)n12`, 11.1%.
For `Cc1nc(C2CCCNC2)cc(N2CCc3nc(N)sc3C2)n1` (stereo unspecified), the cytotoxicity at 70.5 h was 17.4%.
As for `COCCCN1CC2(CCC1=O)CCN(Cc1cc(C)no1)CC2`, the cytotoxicity at 70.5 h came to 12.2%.
With `O=C(c1ccc(F)cc1Cl)N1CCC(Nc2cccnn2)CC1`, the cytotoxicity at 70.5 h is -7.6%.
With `CCOCCC(=O)N(Cc1ccncc1)C(C)CC` (stereo unspecified) the figure was 20.8%; with `COCC(C)NC(=O)c1nnn(-c2ccc(Br)cc2)n1` (stereo unspecified), 10.9%; with `Cc1cc(O)nc(C2CCCN(Cc3ccncc3)C2)n1` (stereo unspecified), -0.0773%.
With `CCc1cnc(C)nc1NCCc1nc(N)cc(O)n1` the figure was -3.5%.
As for `Cc1nc(C)c(S(=O)(=O)NC(=O)c2ccoc2)s1`, the figure is -13%; as for `COc1c(C)cnc(CN2CCC(N(C)C(=O)C(C)OC)CC2)c1C` (stereo unspecified), 7.6%; as for `CC(C)(C)C(=O)N1CCC2(CNS(=O)(=O)c3cnccc3O2)C1` (stereo unspecified), 41.2%.
For the molecule `Cc1ccc2c(c1)C(=O)NCC1(CCN(C(=O)c3scnc3C)CC1)O2`, the cytotoxicity at 70.5 h was -6.59%.
Take `CCC(C)(C)NC(=O)Cn1nnc(CN(C)C(=O)c2ccccc2)n1`: the cytotoxicity at 70.5 h is -3.46%.
As to `COc1cc(NC(=O)N(C)CCC2CC2)ncn1`, the cytotoxicity at 70.5 h came to 19.9%.
As for `c1cc(-c2cnc(NC3CC3)nc2[C@H]2CCCO2)ccn1`, the figure is -7.2%; as for `COCCOc1ncccc1C(=O)Nc1c(C)cnn1CC1CC1`, 8.78%; as for `COc1ccccc1C(=O)N1CCN(C(=O)CCn2ccnc2)CC1`, -5.01%.
With `Cc1ccc2ncnc(N3CCOCC3c3c(C)nn(C)c3C)c2c1` (stereo unspecified) the figure was -11.7%.
With `COc1cccc(-n2c(SCC(=O)O)nnc2-c2cn[nH]c2)c1`, the cytotoxicity at 70.5 h was -3.32%.
For the molecule `O=C(C1CN(CC2CCOCC2)CC12CCOCC2)N1CCCC1` (stereo unspecified), the cytotoxicity at 70.5 h was -2.27%.
With `CN(CCC(C)(C)O)C(=O)C1CCC(=O)N(Cc2ccc(Cl)cc2)C1` (stereo unspecified), the cytotoxicity at 70.5 h is -5.36%.
Regarding `CN(C)CCCNC(=O)c1nc(Cc2c(Cl)cccc2Cl)no1`, the cytotoxicity at 70.5 h was 15.3%.
For `CN1CC2(CCCN(Cc3ccccc3OCC(=O)O)C2)OC1=O` (stereo unspecified), the cytotoxicity at 70.5 h is -2.41%.
With `CCN(Cc1ccoc1)C(=O)c1cc(C)c(C)c(S(N)(=O)=O)c1` the figure was -9.16%; with `O=C(O)COc1ccccc1CN1CCCC1c1cnccn1` (stereo unspecified), -9.06%.
With `Cn1c(CN2CCC(OCc3cccnc3)CC2)cc2ccccc21` the figure was 1.71%.
As for `CC(OCc1ccccc1)C(=O)NCc1ccc(N(C)C)cc1` (stereo unspecified), the figure is -12.6%; as for `CCC(C)(CNC(=O)Nc1nccs1)N1CCOCC1` (stereo unspecified), -8.6%; as for `Cn1nc(Br)c2c(NCCS(N)(=O)=O)ncnc21`, 28.8%.
As to `Cc1nonc1C1CCCN1Cc1ccc(C(=O)Nc2nccs2)cc1` (stereo unspecified), the cytotoxicity at 70.5 h was 9.65%.
With `O=C(CCO)N1CC2(CCN(c3ccccc3)C2)C1` the figure was -1.72%; with `Cc1noc(OCc2ccc(C#N)cc2)n1`, -0.0296%; with `COc1ccccc1OCCNCc1c(C)nn(C)c1N(C)C`, -3.32%.
As for `CN(C)CCCn1ccnc1C1CCCN(c2ncc(Cl)cc2F)C1` (stereo unspecified), the figure is -2.12%; as for `O=C(O)C1(Cc2ccc(-c3cccs3)cc2)CCNC1` (stereo unspecified), -2.56%; as for `Cc1nnc(-c2cccc(N3CCC(NC(C)CC(C)C)CC3)c2)s1` (stereo unspecified), -4.36%.
With `Cc1ccc(Oc2ncccc2CNC2Cc3ccccc3C2)cn1` the figure was -8.21%.
`O=C1NCCCc2[nH]c(-c3nc(C4CC4)no3)nc21`: the cytotoxicity at 70.5 h is -3.92%.
As to `Cc1nc(C2CCN(C(=O)c3ccnn3C)CC2)c2sccn12`, the cytotoxicity at 70.5 h is -3.95%.
With `O=C1CC(c2cccnc2)c2c(c(C(=O)O)cn2-c2ccc(Cl)cc2)N1` (stereo unspecified) the figure was -7.08%; with `CN(C)CCN(CC1CCCO1)S(=O)(=O)NCc1ccccc1` (stereo unspecified), -6.41%; with `Cc1nc(C2CCCN2C(=O)CCCn2cncn2)no1` (stereo unspecified), -7.37%.
As for `NC(=O)CN1CCC(c2csc(Nc3cnccn3)n2)CC1`, the figure is -4.74%.
With `COCCCNC(=O)c1cc(OC)c2ccoc2c1` the figure was 22.5%.
Regarding `CSCc1noc(CN2CC(Cc3ccccc3)CC2=O)n1` (stereo unspecified), the cytotoxicity at 70.5 h was -13%.
With `CCN(C)CC1CCN(C(=O)NCCC2Cc3ccccc3C2)C1` (stereo unspecified) the figure was -6.72%; with `CCn1nnc2c1C(COCCN(C)C)CN(S(C)(=O)=O)C2` (stereo unspecified), 2.19%.
Turning to `CC(C)C(=O)N1CCC2(CC1)COCCN2Cc1ccc(F)cc1`, the cytotoxicity at 70.5 h was -2.33%.
With `CSc1ccc(C(C(=O)O)N2CCOCC2)cc1` (stereo unspecified), the cytotoxicity at 70.5 h is -11.2%.
With `COCC(=O)N1CCN(Cc2csc(-c3ncccn3)n2)CC1` the figure was -2.92%.
As for `COCc1ccc(CNc2cncc(-n3cccn3)n2)cc1`, the figure is -9.14%.
With `CCc1n[nH]c(C2CN(C(=O)Cc3cccs3)CCO2)n1` (stereo unspecified) the figure was 25.1%; with `CCC(C)Sc1ncc(-c2c(C#N)c(N)nc3c2COCC3)cn1` (stereo unspecified), 6.03%.
As for `COCC(=O)N1CCCC1c1csc(Nc2cnccn2)n1` (stereo unspecified), the cytotoxicity at 70.5 h is -10.2%.
As to `Cc1nc(-c2cccc(C(=O)O)c2)cc(C2CCN(C(C)C)C2)n1` (stereo unspecified), the cytotoxicity at 70.5 h is -2.07%.
As for `O=C(NCC1CC1)C1CN(Cc2ccncc2)Cc2ccnn2C1` (stereo unspecified), the figure is -11.9%; as for `Cc1cc2nc(SCC(=O)N3CCCC3)n(C(C)C)c(=O)c2[nH]1`, 14.9%; as for `CC(C)C(O)CNC(=O)Nc1cccc(-c2nccs2)c1` (stereo unspecified), -3.11%.
`CCc1cn[nH]c1C1CCCN(C(=O)c2cc(C(C)C)on2)C1` (stereo unspecified): the cytotoxicity at 70.5 h was -2.01%.
With `O=C(NCCN1CCOC1=O)c1cc(-c2ccccc2)on1` the figure was 33.3%; with `COc1cccc2c(=O)n(C3CCNCC3)cnc12`, -18.3%; with `O=C(N1CCOCC1)N1CCOC[C@H](Oc2ccc(C(F)(F)F)cc2)C1`, -5.44%.
As for `CCn1cnnc1CNC(=O)N1CCCC1`, the figure is 5.61%; as for `Cn1cc(N2C(=O)CC[C@@H]3[C@H]2CCN3Cc2cccc(C#N)c2)cn1`, -13.2%.
Take `O=C1N[C@@H]2CCN(C(=O)C3CCC3)[C@@H]2C(=O)N1c1ccc(F)cc1`: the cytotoxicity at 70.5 h turned out to be 21.8%.
With `COc1ccc(CN2CCc3c(CNC(=O)CC#N)nn(C)c3C2)cc1` the figure was -1.4%.
As for `CN(C)CC1CN(Cc2nnc(-c3ccccc3Cl)o2)CCO1` (stereo unspecified), the figure is 3.65%.
With `O=C(Nc1ccccc1)c1cc2n(n1)CCCN(C(=O)c1ccc[nH]1)C2` the figure was 14.9%.
`Cc1ccc2c(c1)c(CNC(C)Cn1nc(C)cc1C)nn2C` (stereo unspecified): the cytotoxicity at 70.5 h was found to be 2.8%.
With `CC(CNS(C)(=O)=O)Oc1cccc(Cl)c1` (stereo unspecified) the figure was 3.7%; with `C[C@@H]1CN(c2nc3c(cc2C(N)=O)CCC3)C[C@@]1(O)C1CCC1`, -11.3%; with `Cc1cc(S(=O)(=O)N(CCO)C2CC2)ccc1F`, -2.56%.
With `Cc1cc(NC(=O)C2CCN(c3ncccc3C#N)CC2)no1` the figure was 3.46%; with `Cc1csc(CNC(=O)NCc2ccc3c(c2)OCCO3)n1`, -14.3%; with `Cc1ccc(C(=O)N2CCN(c3ncnc4nc(N)ccc34)CC2)cc1`, 20.2%.
As for `c1cc(NCc2ccncc2)nc(C2CCCN2)c1` (stereo unspecified), the figure is 2.66%; as for `NCc1cnn(-c2ccccc2C(=O)NCc2ccccn2)c1`, -5.83%.
For the molecule `N#Cc1c(F)cccc1NCCCOCC1CCOC1` (stereo unspecified), the cytotoxicity at 70.5 h is -0.771%.
With `COCCCS(=O)(=O)N1CCN(C(C)(C)CO)CC1` the figure was -7.76%; with `O=C(c1ccsc1)N1CCO[C@@H]2CN(Cc3nccs3)C[C@@H]2C1`, -3.17%.
On to `Cc1nc(C)n(CC2CCCN2CCc2cccs2)n1` (stereo unspecified), for which the cytotoxicity at 70.5 h came to 39.6%.
Turning to `Fc1cnc(N2CC3(CCN(Cc4ccsc4)C3)C2)nc1`, the cytotoxicity at 70.5 h was -6.5%.
With `COCCN1CCN(Cc2csc(-c3cnn(C)c3)n2)CC1` the figure was -7.26%.
With `CCNC(=O)c1ncn2c1CN(C)S(=O)(=O)c1ccccc1-2` the figure was -8.36%; with `COC(=O)[C@@H]1CN(S(=O)(=O)c2ccccc2)CCN1S(C)(=O)=O`, -7.6%; with `CN(C)CCNC(=O)c1cc(-c2cnc(N3CCCC3)nc2)cn1C`, 21.5%.
For `COCCNc1cccc(C2CCCN2)n1` (stereo unspecified), the cytotoxicity at 70.5 h was -6.3%.
As to `CCOc1cccc(CCNC(=O)Cc2cccc(O)c2)n1`, the cytotoxicity at 70.5 h was -7.71%.
With `COc1ccc(C2=Nn3c(CCCN)nnc3-c3ccccc3C2)cc1` the figure was 4.99%.
As for `COC(=O)NCC(=O)N(C)CC1Cc2ccccc2CN1C` (stereo unspecified), the figure is -2.82%.
As for `O=S(=O)(c1cccs1)N1CC[C@H]2[C@H]1CCN2CC1CC1`, the figure is -9.72%; as for `Cc1nccc(N[C@H]2CN(C(=O)CCN3CCCC3=O)C[C@@H]2C(C)C)n1`, -19.6%; as for `Cc1cc(N(C)CCN(C)C)n2nc(C)cc2n1`, -1.46%.
For the molecule `Cc1nc(C(NC(=O)c2cc(C(C)C)[nH]n2)c2ccccc2)n[nH]1` (stereo unspecified), the cytotoxicity at 70.5 h is -11.7%.
As for `Cn1c(Cl)cnc1CN1CCCC1c1ccc2c(c1)OCCO2` (stereo unspecified), the figure is 19.4%; as for `CN(C)C(=O)Cc1ccc(NC(=O)NC2CCCCC2)cc1`, -10.4%.
As for `Cc1nnc(N2CCC(CS(N)(=O)=O)CC2)c(C#N)c1C`, the figure is -9.82%; as for `O=C(O)[C@@H]1CN(C(=O)c2ccc(Cl)cc2)C[C@H]1c1cccc(F)c1`, -12.9%.
